Experimental data as given in patent US12384751B2, “Allosteric activators of the ALPHA1A-adrenergic receptor” (The Cleveland Clinic Foundation, priority 2019, dated 2025).
“Also recorded” adds a separate entry of the source.

What was measured:
[1] = biological target: T1, α1A-AR (Homo sapiens, UniProt P35348); experiment: cAMP assay at α1A-AR; assay type: cell-based; set-up: expressed in transfected cells; host or cells: Rat-1 fibroblast cells; details: for effect on epinephrine-mediated cAMP response at the α1A-AR: 10^−5M to 10^−7M of compound; for effect on norepinephrine-mediated cAMP response at the α1A-AR: 10^−5M to 10^−9M of compound
T1 sequence (P35348 1-466): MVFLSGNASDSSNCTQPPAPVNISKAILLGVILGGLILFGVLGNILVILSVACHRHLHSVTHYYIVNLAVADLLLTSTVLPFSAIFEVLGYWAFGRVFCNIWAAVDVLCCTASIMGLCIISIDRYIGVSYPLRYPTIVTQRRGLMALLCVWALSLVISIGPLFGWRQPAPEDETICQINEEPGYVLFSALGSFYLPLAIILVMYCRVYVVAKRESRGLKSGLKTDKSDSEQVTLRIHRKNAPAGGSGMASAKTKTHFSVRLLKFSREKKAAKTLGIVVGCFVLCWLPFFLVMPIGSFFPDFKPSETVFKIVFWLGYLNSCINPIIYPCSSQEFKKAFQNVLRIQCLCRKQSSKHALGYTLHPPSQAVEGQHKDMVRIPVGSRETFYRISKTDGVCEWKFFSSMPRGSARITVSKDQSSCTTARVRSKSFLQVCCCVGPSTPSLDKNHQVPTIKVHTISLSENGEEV
Experimental: cAMP assay: Cells expressing a single α1-adrenergic receptor subtype are washed and re-plated into 24-well plates in DMEM media without serum at approximately 2.4×10^4 cells/well. Cells are allowed to rest till the next day in a CO2 incubator at 37° C. The cells are washed twice with DMEM (no serum), then 1 ml of DMEM is added to each well. Cells are pre-incubated for 45 mins-1 hour at 37° C. in a CO2 incubator with 10 uM propranolol, followed by 100 uM IBMX for 30 minutes. Final DMSO concentration is at 0.05%. Norepinephrine or epinephrine is added in a dose response (1 dose per well) in addition to one of the Compounds 1-10 at one concentration (i.e. 10^−5M). Cells are incubated for another 30 mins at 37° C. in a CO2 incubator. The reaction is concluded by aspirating the media and adding 0.1M HCL. The mixture is incubated for 20 mins at room temperature. The cells are scraped and suspended until homogenous. The mixture is centrifuged at 1000 g for 10 mins and the supernatant assayed the same day according to a manufacturer's cAMP kit (Cayman Select Cyclic AMP EIA kit #501040).

[2] = biological target: T1, α1A-AR; experiment: Competition binding with [125I]HEAT at α1A-AR (Rat-1 fibroblast membranes); set-up: expressed in transfected cells; host or cells: Rat-1 fibroblast cells
Experimental: Competition binding assays: […] Assays were performed in duplicate in HEM buffer, in a total assay volume of 1000 μl. […] The above conditions will convert all the conformations of the receptor into a single low affinity site. To show both high and low affinity sites of the receptor (typically seen with GPCR agonists), the GTP is removed from the binding buffer. Nonspecific binding was determined experimentally in the presence of 10^−4 M phentolamine. Unbound radioactivity was separated from membrane-bound radioactivity by filtration through Whatman GF/C filter paper. Filters are washed five times with 5 ml of cold HEM buffer containing 0.5 mMGTP (if added to the binding buffer but not if it was not added to the binding buffer). Bound radioactivity remaining on the filters was counted on an ICN gamma counter operating at 79.8% efficiency. Data are analyzed using Graphpad Prism.

[3] = biological target: T1, α1A-AR; experiment: Total inositol phosphate assay at α1A-AR; assay type: cell-based; set-up: expressed in transfected cells; host or cells: Rat-1 fibroblast cells; details: for stimulation of inositol phosphate / agonist activity by the compound by itself: compound alone
Experimental: Total Inositol Phosphate assay: Cells expressing a single α1-adrenergic receptor subtypes are washed and re-plated into 6-well plates containing DMEM media at approximately 5×10^5 cells/well. Cells are allowed to rest till the next day in a CO2 incubator at 37° C. The cells are washed twice with DMEM (no serum), then 2 ml of DMEM is added to each well. 2 ul of ^3H-inositol (at 1 uCi/mL, Perkin-Elmer NET 114 005MC) and 10 mM LiCl is added to each well. The cells are incubated for 1 hour at 37° C. in a CO2 incubator. […] The cells are incubated again for 1 hour at 37° C. in a CO2 incubator. The media is aspirated and 1 mL of ice-cold 0.4M perchloric acid is added. The cells are scraped, transferred to a vial, then 1 mL 0.72M KOH/0.6M KHCO3 is added, the tube vortexed and the contents centrifuged at 2000 rpm for 10 mins. The supernatant is removed and applied to BioRad polyprep columns packed with 1 mL of AG1-X8 resin (BioRad AG1-X8 resin 100-200 mesh #140-1444) in 0.1M formic acid in a holding tray which is over a plastic catch tray. The supernatant is allowed to naturally drip through the column then washed with 8 ml of 0.1M formic acid (2 ml at a time). The columns are transferred via the holding tray to a box of 20 ml scintillation vials so that the columns drip directly into the vials. Total inositol phosphates are eluted off the column with 2 ml of 0.1M formic acid/1M ammonium formate. The columns are eluted a second time into a new scintillation vial with another 2 ml of 0.1M formic acid/1M ammonium formate. 18 ml of Ecoscint A is added to each scintillation vial and vortexed. The vials are allowed to dark adapt overnight at room temperature to reduce autofluorescence. The vials are counted in a scintillation counter on the tritium channel and the cpms from the first and second fractions eluted off the columns are added together.

[4] = tested on: Normal mice; details: cited from earlier work
[5] = biological target: T1, α1A-AR; experiment: Effect of compound on binding affinity of norepinephrine, epinephrine or other ligands at α1A-AR; set-up: expressed in transfected cells; host or cells: Rat-1 fibroblast cells; details: for effect on binding affinity of epinephrine at the α1A-AR: 10^−5M (highest dose tested); for effect on binding affinity of norepinephrine at the α1A-AR: fixed dose of compound, 10^−5M to 10^−9M
Experimental: Competition binding assays: These compounds were characterized for their ligand binding properties at the α1-AR subtypes. The binding affinities of Compounds 1-10 were determined in a series of competition-binding experiments with the α1-AR-selective antagonist [^125I]HEAT as the radioligand. Assays were performed in duplicate in HEM buffer, in a total assay volume of 1000 μl. Radioligand binding assays are composed of 5 ug of membranes, harvested from Rat-1 fibroblast cells expressing only one of the alpha1-AR subtypes, HEM buffer containing GTP (composed of 20 mM HEPES, pH 7.4, 1.4 mM EGTA, 12.5 mM MgCl2, pH to 7.4), 0.5 mM GTP, 35-80 pM^125I-HEAT, and various doses of norepinephrine or epinephrine and incubated with shaking at 25° C. for 1-2 hours. The above conditions will convert all the conformations of the receptor into a single low affinity site. To show both high and low affinity sites of the receptor (typically seen with GPCR agonists), the GTP is removed from the binding buffer. Nonspecific binding was determined experimentally in the presence of 10^−4 M phentolamine. Unbound radioactivity was separated from membrane-bound radioactivity by filtration through Whatman GF/C filter paper. Filters are washed five times with 5 ml of cold HEM buffer containing 0.5 mMGTP (if added to the binding buffer but not if it was not added to the binding buffer). Bound radioactivity remaining on the filters was counted on an ICN gamma counter operating at 79.8% efficiency. Data are analyzed using Graphpad Prism.
To determine the effects of compounds 1-10 on the binding affinity of norepinephrine or epinephrine, the competition binding assay was repeated as above with one dose of each individual compound (i.e. 10^−5M) added to each concentration point. Data are normalized to the norepinephrine or epinephrine binding curve alone without the addition of the compound to measure its effect on binding.

[6] = biological target: α1-ARs; details: read-out: calculated Ki; cited from earlier work

PAM activity / PAM type [1] | binding behaviour against radiolabeled antagonist 125I-HEAT (full inhibition; competitive or allosteric) [2] | selectivity for the α1A-AR over the α1B-AR and α1D-AR subtypes [2] | effect on binding affinity of epinephrine at the α1A-AR [5] | effect on binding affinity of epinephrine at the α1A-AR ([5]; listed as Cirazoline) | effect on binding affinity of norepinephrine at the α1A-AR [5] | Compound | effect on epinephrine-mediated cAMP response at the α1A-AR [1] | effect on norepinephrine-mediated cAMP response at the α1A-AR [1] | effect on epinephrine-mediated inositol phosphate response at the α1A-AR [3] | effect on norepinephrine-mediated inositol phosphate response at the α1A-AR [3] | stimulation of inositol phosphate / agonist activity by the compound by itself [3] | cognition [4] | neurogenesis [4] | effect on binding affinity of norepinephrine at the α1A-AR ([5]; listed as Cirazoline) | Ki [6]
no evidence of PAM activity | competitive not allosteric behavior | 100 fold |  |  |  | Cc1c(OCC2=NCCN2)ccc(Cl)c1NS(C)(=O)=O.Cl [RO115-1240] | competitive, not PAM behavior; also recorded: shift the curve to the right to lower potency (inhibition) | antagonist at cAMP; also recorded: competitive, not PAM behavior; also recorded: shift the curve to the right to lower potency (inhibition) | competitive/noncompetitive partial agonism, not PAM behavior | competitive/noncompetitive partial agonism, not PAM behavior | weak partial agonist; also recorded: significant IP response on its own |  |  |  | 
no evidence of PAM activity |  |  | totally inhibit the binding | fully inhibit | totally inhibit the binding | c1ccc(C2CC2)c(OCC2=NCCN2)c1 [cirazoline] | competitive, not PAM behavior | competitive, not PAM behavior | competitive/noncompetitive partial agonism, not PAM behavior | competitive/noncompetitive partial agonism, not PAM behavior | full agonist at the IP response; also recorded: strong agonist at the IP response | increased | increased | does not increase the affinity of norepinephrine | 
 |  |  |  |  |  | COc1cc2nc(N3CCN(C(=O)c4ccco4)CC3)nc(N)c2cc1OC [prazosin] |  |  |  |  |  |  |  |  | 1 nM
